Each compound was assayed against T1, PDE (bovine brain-derived phosphodiesterase, majority PDE4 isozyme) (assay: PDE-Glo phosphodiesterase assay, […] cAMP substrate).
T1 construct: bovine brain-derived PDE (Sigma), majority PDE4 isozyme
Type: biochemical, Bos taurus

**Q.** Which IC50 does the source give for `Oc1ccc(/N=N/c2ccccc2)cc1` [4-PAP, 4-phenylazophenol] here?
**A.** 26.5 µM

**Q.** With `Oc1ccc(/C=C/c2ccccc2)cc1` [T4HS, trans-4-hydroxystilbene] as the compound, how does the IC50 read?
**A.** 27.8 µM

**Q.** How did the IC50 turn out when `Oc1ccc(/C=C/c2cc(O)cc(O)c2)cc1` [resveratrol] was run?
**A.** 19 µM

Reference: paper PMC4370454, “The 4′-Hydroxyl Group of Resveratrol Is Functionally Important for Direct Activation of PPARα” (PLoS ONE, 2015)
